Laboratory results: article PMC7824383, “Organic Solution Advanced Spray-Dried Microparticulate/Nanoparticulate Dry Powders of Lactomorphin for Respiratory Delivery: Physicochemical Characterization, In Vitro Aerosol Dispersion, and Cellular Studies” (Pharmaceutics, 2020)
Converted amounts (≈) assume the structure as drawn. Read-outs that look alike come from different tables or passages of the source. Square brackets hold non-standard residues; d marks the D form. Peptide text beside a SMILES is read from it. * marks the point of attachment. X1 = OC[C@H]1O[C@@H](O[C@H]2[C@H](O)[C@@H](O)[C@H](*)O[C@@H]2CO)[C@H](O)[C@@H](O)[C@H]1O

Legend:
[1] = Residual water content by Karl Fischer titration; format: physicochemical; conditions: Karl Fischer coulometric titration, 1–2 mg in anhydrous methanol; mean ± SD, n = 3
Procedure: Using conditions similar to previously reported, the residual water content of all powders was quantified by Karl Fischer titration (KFT) […] using a TitroLine® 7500 trace titrator (SI Analytics, Mainz, Germany). Around 1–2 mg of sample was dissolved in 0.5 mL AQUA STAR anhydrous methanol. The sample solution was injected into a reaction cell filled with Hydranal®Coulomat AD reagent; then, a simple calculation obtained the sample’s water content. All experiments were done in triplicate (n = 3).

[2] = Partition coefficient (LogP) by shake-flask, 1-octanol/water; format: physicochemical; conditions: shake-flask 1-octanol/water (equal volumes, water saturated with octanol), 1 mg/mL, pH 8.5, shaken 24 h then 24 h standing, HPLC-UV 280 nm, mean ± SD, n = 3
Procedure: Lipophilicity is a critical physicochemical property that affects ADMET (absorption, distribution, metabolism, excretion, and toxicity). SFM is the most known lipophilicity measurement method, which is based on liquid-liquid extraction using the n-octanol/water system. The partition coefficient of Lactomorphin was measured at the room, and physiological temperatures via SFM using conditions similar to previously reported. The Lactomorphin powder was dispensed into two individual glass vials containing equal volumes of 1-octanol and water to achieve a 1 mg/mL concentration. The water solution in each vial was saturated with octanol before analysis. The pH was measured and fixed to 8.5 value to assure the predominant presence of the unionized form of Lactomorphin. The pH stability in both vials was regularly checked throughout the experiment. The first vial was shaken for 24 h at room temperature. The other one was shaken for 24 h while kept in an incubator at 37 °C. After 24 h, the vials shaking was stopped. […] A sample from each layer was carefully withdrawn and analyzed by the analytical HPLC to measure the concentration of Lactomorphin in each layer then calculate the Partition coefficient (P) and logP using the following equations:(4) P =[neutral solute]oct/[neutral solute]Aq (5) LogP=log10[neutral solute]oct/[neutral solute]Aq […]

[3] = Equilibrium solubility by shake-flask method (SFM); format: physicochemical
Procedure: The solubility of the unionized form of raw (unprocessed) Lactomorphin was determined by the shake-flask method (SFM) using conditions similar to previously reported. For each reported solubility result, three independent SFM experiments were carried out in parallel in the following solvents (purified water, PBS, NS, methanol, and ethanol). For each experiment, the solid sample of Lactomorphin was added using a spatula to a specific volume of each solvent in closed, light-protected glass vials while shaking the vial until a heterogeneous system of the solid sample and the solvent was achieved. Samples were visually inspected to ensure that solid Lactomorphin was still in excess in each vial. The solution containing solid excess of the Lactomorphin was then capped and allowed to agitate using the shaker for 24 h at room temperature (25 °C). The presence of precipitation was checked after several hours. If dissolution was complete, more solid Lactomorphin was added to the vial.
The pH values of Lactomorphin ampholyte suspensions were adjusted to the isoelectric point to determine the solubilities of the zwitterionic species point and to assure the predominant presence of the unionized form of Lactomorphin. The pH of each Lactomorphin suspension in each solvent (except in methanol and ethanol, which were just measured) was adjusted by using 0.1 M NaOH/0.1 M HCl to a value of 8.5. The pH values for all vials were checked after saturation, several hours after the shaking process started, and after equilibrium was achieved. Separating saturated solution and precipitate by sedimentation was performed, which is more accurate than filtration since the filtration step is labor-intensive and tedious, it has been a known issue that drug loss can occur through membrane absorption during filtration in the SFM [32]. Aliquots of supernatant were then taken out with a micropipette from all saturated solutions and diluted with each corresponding solvent. Analytical HPLC measured the concentration of Lactomorphin in each aliquot in against freshly prepared calibration curves. As mentioned above, three independent SFMs were made for each reported result. Thus, the reported results were the mean of three measured concentrations and the standard deviation of the mean (n = 3, mean ± Standard deviation).
The HPLC system was LC-2010HT next generation HPLC (SHIMADZU Tokyo, Japan), comprised of a degassing unit, low-pressure gradient unit, pump unit, mixer, ultra-fast autosampler, column oven, and a UV-VIS detector with a thermostatted flow cell. System. The analysis was performed by a reverse phase HPLC assay, using Phenomenex Prodigy 5 um ODS (3) 250 × 4.6 mm HPLC Column. Ultraviolet detection was done at 280 nm. Mobile phase conditions were gradient of acetonitrile (CH3CN) in water (H2O) with 0.1% trifluoroacetic acid (F3CCOOH) at a 1 mL/min flow rate. The injection volume was 20 μL; the retention time for Lactomorphin was ~8.5 min. Quantification was determined using peak area and calculated from a nine-point standard curve; standard curve points were prepared by dilution in water.

[4] = Thermal degradation study of solid-state Lactomorphin; format: physicochemical; conditions: n = 3
Description: Forced degradation is a degradation of new drug substances at conditions more severe than accelerated conditions. The FDA and ICH guidance estate the requirement of stability testing data to understand how the quality of drug changes with time under various environmental conditions. Thermal, hydrolysis, oxidation, and photodegradation are commonly used stress study conditions. Knowledge of a molecule’s stability helps select proper formulation and provide adequate storage conditions and shelf life, which is essential for regulatory documentation. As the temperature is one of the most vital factors that affect the stability of a drug material more than the other conditions, in this study, we performed thermal degradation by exposing samples of solid-state Lactomorphin to dry and wet heat.
Samples preparation were done by weighing 25 mg of Lactomorphin, transfer it into a 25 mL volumetric flask, and add 25 mL of water and shake so all the quantity dissolved. Using a calibrated micropipette, transfer 0.20 mL of this 1 mg/mL Lactomorphin stock solution into around 90 (2 mL) glass vials. Freeze-dry all vials so that all vials have accurately 0.2 mg of Lactomorphin after lyophilization. A saturated salt solution of NaCl to achieve about 75% Relative Humidity (RH) and saturated salt solution of P2O5 to reach about 0.00% RH were prepared. Thirty vials contain 0.2 mg of Lactomorphin were kept inside a separate desiccator (tightly closed 20 mL glass vial with saturated NaCl). Another set of 30 vials were kept inside the desiccator (tightly closed 20 mL glass vial with saturated P2O5). All were put in oven fixed at 62 °C temperature. To achieve equal distribution of heat inside the oven for all samples used for the degradation study, they were placed in a metallic block made, especially for this study. The rest of the vials were kept in a desiccator at −80 °C to be used as comparison(control) samples.
According to the regulatory guidelines, there is no specific concentration used for the degradation study; however, 1 mg/mL concentration is recommended. This study used three concentrations by dissolving the stability samples in 0.2 mL, 0.4 mL, and 2 mL water to achieve 1000 μg/mL, 500 μg/mL, and 100 μg/mL concentration, respectively. Analysis of the stability samples was performed every time against a freshly prepared calibration curve and comparison samples (control samples that freshly prepared and injected directly without being exposed to the force degradation conditions) at the following periods: 0.00, 0.08, 0.17, 1, 2, 4, 10, 20, 45, 94 and 133 days. All experiments at each time point and different stability conditions were done in triplicate (n = 3). The HPLC system consisted of a VARIAN ProStar model 330 PDA Detector coupled with a VARIAN ProStar Solvent delivery module and VARIAN ProStar model 430 auto-sampler. The analysis was performed by a reverse phase HPLC assay, using Inspire™ 5 μm C18, 250 × 4.6 mm HPLC Column. Ultraviolet detection was done at 280, 254 and 220 nm, but the quantitation was done at 280 nm only. Mobile phase conditions were gradient according to the above program in Section 2.2.13 and at a flow rate of 1.00 mL/min.

[5] = tested on: Normal Human Astrocytes (NHA); assay: Resazurin cell viability assay, NHA; conditions: NHA cells, 48 h exposure, 0.1, 1, 10 and 1000 µg/mL, resazurin fluorescence; p > 0.05
[6] = tested on: RPMI 2650 human nasal epithelial cells; assay: Resazurin cell viability assay, RPMI 2650; conditions: RPMI2650 cells, 48 h exposure, 0.1, 1, 10 and 1000 µg/mL, resazurin fluorescence 544/590 nm; p > 0.05
[7] = tested on: H441 lung adenocarcinoma cells; assay: Resazurin cell viability assay, H441; conditions: 48 h exposure, 0.1, 1, 10 and 1000 µg/mL, resazurin fluorescence, p > 0.05
[8] = tested on: hCMEC/D3 human cerebral microvascular endothelial cells; assay: Resazurin cell viability assay, hCMEC/D3; conditions: 48 h exposure, 0.1, 1, 10 and 1000 µg/mL, resazurin fluorescence, p > 0.05

In the case of `OC[C@H]1O[C@H](O[C@H]2O[C@H](CO)[C@@H](O)[C@H](O)[C@H]2O)[C@H](O)[C@@H](O)[C@@H]1O` [Raw Trehalose, D (+)-Trehalose dihydrate], the “Water % (w/w)” value [1] is reported as 8.11 ± 1.96 % (w/w).

For `CC(C)C[C@H](NC(=O)[C@H](Cc1ccccc1)NC(=O)CNC(=O)[C@H](NC(=O)[C@@H](N)Cc1ccc(O)cc1)[C@H](C)O)C(=O)N[C@@H](CO[C@@H]1O[C@H](CO)[C@@H](O[C@@H]2O[C@H](CO)[C@H](O)[C@H](O)[C@H]2O)[C@H](O)[C@H]1O)C(N)=O` [Lactomorphin, H2N-Tyr-D-Thr- Gly-Phe-Leu-Ser-(O-β-Lactoside)-CONH2] (H-Y[dT]GFLS(X1)-NH2), the “Experimental LogP at Room Temperature (25 °C)” value ([2]; 25 °C) was −2.40 ± 0.00, the “Experimental LogP at Physiological Temperature (37 °C)” value ([2]; 37 °C) was −2.33 ± 0.02 and the “Solubility (USP) Definition, PBS” value ([3]; PBS, pH 8.50 (adjusted), 25 °C) was “Freely soluble (Fs) (all these solubility values fell in the range of 100–1000 mg/mL, which is the freely soluble category)”. The solubility thermodynamic at 24 h ([3]; aqueous buffer, thermodynamic from solid, water, NS and PBS, shake-flask, pH 8.5, 25 °C, read-out: aqueous solubility) was greater than 100 mg/mL, the “Solubility (USP) Definition, Ethanol” value ([3]; ethanol, pH 7.30 (measured), 25 °C) was “Sparingly soluble (sps)” and the “Calculated Log S, NS” value ([3]; from experimental solubility, footnote: S in mMoleunit, NS, pH 8.50) was −0.9. The “Calculated Log S, PBS” value ([3]; from experimental solubility, footnote: S in mMoleunit, PBS, pH 8.50) was −0.3, the “Calculated Log S, Ethanol” value ([3]; from experimental solubility, footnote: S in mMoleunit, ethanol) was −1.7 and the “Calculated Log S, Methanol” value ([3]; from experimental solubility, footnote: S in mMoleunit, methanol) was −1.3. For the same compound, the “Calculated Log S, Water” value ([3]; from experimental solubility, footnote: S in mMoleunit, water, pH 8.50) was −0.6, the “Solubility (USP) Definition, Methanol” value ([3]; methanol, pH 7.27 (measured), 25 °C) was “Soluble (s)” and the solubility thermodynamic at 24 h ([3]; normal saline (NS), pH 8.5, saline or isotonic, thermodynamic from solid, thermodynamic shake-flask, excess solid, normal saline, pH 8.50 (adjusted), shaken 24 h, 25 °C, HPLC-UV 280 nm, mean ± SD, n = 3, read-out: Solubility in NS) was 140.4 ± 0.32 mg/mL (≈ 139 mM). The “Solubility (USP) Definition, NS” value ([3]; normal saline, pH 8.50 (adjusted), 25 °C) was “Freely soluble (Fs) (all these solubility values fell in the range of 100–1000 mg/mL, which is the freely soluble category)”, the solubility thermodynamic at 24 h ([3]; pH 8.5, aqueous buffer, thermodynamic from solid, thermodynamic shake-flask, excess solid, PBS, pH 8.50 (adjusted), shaken 24 h, 25 °C, HPLC-UV 280 nm, mean ± SD, n = 3, read-out: Solubility in PBS) was 570.3 ± 2 mg/mL (≈ 565 mM) and the solubility thermodynamic at 24 h ([3]; pH 8.5, thermodynamic from solid, thermodynamic shake-flask, excess solid raw Lactomorphin, purified water, pH 8.50 (adjusted with 0.1 M NaOH/HCl), shaken 24 h, 25 °C, sedimentation, HPLC-UV 280 nm, mean ± SD, n = 3, read-out: Solubility in Water) was 267 ± 6 mg/mL (≈ 264 mM). The “Solubility in Ethanol” value ([3]; thermodynamic shake-flask, excess solid, ethanol, pH 7.30 (measured), shaken 24 h, 25 °C, HPLC-UV 280 nm, mean ± SD, n = 3) was 18.00 ± 0.00 mg/mL (≈ 17.8 mM), the “Solubility in Methanol” value ([3]; thermodynamic shake-flask, excess solid, methanol, pH 7.27 (measured), shaken 24 h, 25 °C, HPLC-UV 280 nm, mean ± SD, n = 3) was 45.67 ± 1.00 mg/mL (≈ 45.2 mM) and the “Solubility (USP) Definition, Water” value ([3]; water, pH 8.50 (adjusted), 25 °C) was “Freely soluble (Fs) (all these solubility values fell in the range of 100–1000 mg/mL, which is the freely soluble category)”. For the same compound, the “Lactomorphin stability% (remaining%)” value ([4]; solid (lyophilised 0.2 mg), 62 °C / 75% RH, 2 hrs, reconstituted in water to 100, 500, 1000 μg/mL, HPLC-UV 280 nm vs fresh controls) was 59%, the “Lactomorphin stability% (remaining%)” value ([4]; solid, 62 °C / 75% RH, 4 hrs, reconstituted 100, 500, 1000 μg/mL, HPLC-UV 280 nm) was 29% and the “Lactomorphin stability% (remaining%)” value ([4]; solid, 62 °C / 75% RH, 24 h, reconstituted 100, 500, 1000 μg/mL, HPLC-UV 280 nm) was 6%. The “Lactomorphin stability% (remaining%)” value ([4]; solid, 62 °C / RH 0.00%, 10 days, HPLC-UV 280 nm) was “around 60%”, the “Lactomorphin stability% (remaining%)” value ([4]; solid, 62 °C / RH 0.00%, day 94, HPLC-UV 280 nm) was ~ 10% and the “Lactomorphin stability% (remaining%)” value ([4]; solid, 62 °C / RH 0.00%, day 133, HPLC-UV 280 nm) was ~ 10%. The “Lactomorphin stability% (remaining%)” value ([4]; solid, 62 °C / RH 0.00%, up to day 45, HPLC-UV 280 nm) was “around 60%”, the “relative cell viability% vs control” value [5] was “no statistically significant difference” and the “relative cell viability% vs control” value [6] was “no statistically significant difference”. For the same compound, the “relative cell viability% vs control” value [7] was “no statistically significant difference” and the “relative cell viability% vs control” value [8] was “no statistically significant difference”.
